≈ marks a conversion by molar mass, not a printed value.
Legend:
MCF7 [1] = test: Antiproliferative activity against human MCF7 cells assessed as reduction in cell viability incubated for 24 hrs by MTT assay; format: functional, cell-based; settings: MCF7, 24 h
A549 [2] = test: Antiproliferative activity against human A549 cells assessed as reduction in cell viability incubated for 24 hrs by MTT assay; format: functional, cell-based; settings: A549, 24 h
[3] = Antiproliferative activity against human AG01522 cells assessed as reduction in cell viability incubated for 24 hrs by MTT assay; format: functional, cell-based; settings: AG01522, 24 h
HT-29 = test: Antiproliferative activity against human HT-29 cells assessed as reduction in cell viability incubated for 24 hrs by MTT assay; format: functional, cell-based; settings: HT-29, 24 h
MDA-MB-231 = test: Anticancer activity against human MDA-MB-231 cells; format: functional, cell-based
[4] = target: Cholinesterases; ACHE & BCHE (Homo sapiens) (UniProt P06276+P22303); test: Selectivity ratio of IC50 for inhibition of recombinant human AchE to IC50 for inhibition of human BchE; format: protein assay
Sequence of Cholinesterases; ACHE & BCHE (Homo sapiens) (P06276 whole entry, looked up): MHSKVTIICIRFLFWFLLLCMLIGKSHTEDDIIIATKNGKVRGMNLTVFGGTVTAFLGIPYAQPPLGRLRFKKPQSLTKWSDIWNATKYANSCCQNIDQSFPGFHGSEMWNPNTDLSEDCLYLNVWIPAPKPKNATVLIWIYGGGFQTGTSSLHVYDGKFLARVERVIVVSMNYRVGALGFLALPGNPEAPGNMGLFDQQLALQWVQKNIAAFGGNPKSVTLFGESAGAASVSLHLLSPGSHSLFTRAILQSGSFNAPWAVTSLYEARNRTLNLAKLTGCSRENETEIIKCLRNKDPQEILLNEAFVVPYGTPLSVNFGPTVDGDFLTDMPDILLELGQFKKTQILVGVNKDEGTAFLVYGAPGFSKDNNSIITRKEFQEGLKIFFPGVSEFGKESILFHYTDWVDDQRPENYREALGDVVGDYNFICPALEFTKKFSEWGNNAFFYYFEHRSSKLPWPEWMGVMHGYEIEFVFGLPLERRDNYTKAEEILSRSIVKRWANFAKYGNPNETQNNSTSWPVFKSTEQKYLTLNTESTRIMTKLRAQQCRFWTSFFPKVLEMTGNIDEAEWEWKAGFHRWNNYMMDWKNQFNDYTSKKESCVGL
Sequence of Cholinesterases; ACHE & BCHE (Homo sapiens) (P22303 whole entry, looked up): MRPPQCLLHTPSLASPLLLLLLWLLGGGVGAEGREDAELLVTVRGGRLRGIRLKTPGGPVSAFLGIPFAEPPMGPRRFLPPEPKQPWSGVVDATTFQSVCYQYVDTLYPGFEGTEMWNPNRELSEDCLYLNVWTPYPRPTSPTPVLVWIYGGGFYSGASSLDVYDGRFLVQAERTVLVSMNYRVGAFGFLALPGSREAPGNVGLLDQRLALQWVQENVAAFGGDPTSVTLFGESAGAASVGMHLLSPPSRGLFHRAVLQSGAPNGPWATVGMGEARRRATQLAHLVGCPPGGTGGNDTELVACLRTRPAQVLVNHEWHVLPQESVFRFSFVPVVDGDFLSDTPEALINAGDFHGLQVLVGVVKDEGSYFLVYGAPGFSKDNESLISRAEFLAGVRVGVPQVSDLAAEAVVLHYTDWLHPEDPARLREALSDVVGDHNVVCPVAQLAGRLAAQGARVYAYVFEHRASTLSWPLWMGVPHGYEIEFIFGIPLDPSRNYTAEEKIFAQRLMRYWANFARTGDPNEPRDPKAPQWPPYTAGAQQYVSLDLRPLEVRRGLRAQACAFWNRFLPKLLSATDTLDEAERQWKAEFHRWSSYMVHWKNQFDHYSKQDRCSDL

Coxsackievirus = test: Antiviral activity against Coxsackievirus B4 infected in human HEp-2 cells assessed as reduction in virus-induced cytopathic effect incubated for 3 to 10 days by MTS assay; format: functional, organism-based; settings: B4, HEp-2
HL-60 = test: Anticancer activity against human HL-60 cells assessed as cell growth inhibition incubated for 72 hrs by CellTiter96 aqueous Non-Radioactive Cell Proliferation Assay; format: functional
NCI-H460 [5] = test: Anticancer activity against human NCI-H460 cells assessed as cell growth inhibition incubated for 72 hrs by MTT assay; format: functional
CAPAN-1 = test: Anticancer activity against human CAPAN-1 cells assessed as cell growth inhibition by MTS assay; format: functional
K562 = test: Anticancer activity against human K562 cells assessed as cell growth inhibition incubated for 72 hrs by CellTiter96 aqueous Non-Radioactive Cell Proliferation Assay; format: functional
LN-229 = test: Anticancer activity against human LN-229 cells assessed as cell growth inhibition by MTS assay; format: functional
[6] = Cytotoxicity against African green monkey Vero cells assessed as reduction in cell viability incubated for 3 to 10 days by MTS assay; format: toxicity, cell-based; settings: chlorocebus sabaeus, time 3-10 day
MCF7 [7] = test: Antiproliferative activity against human MCF7 cells assessed as cell growth inhibition incubated for 72 hrs by MTT assay; format: functional
[8] = Cytotoxicity against human HEp-2 cells assessed as reduction in cell viability incubated for 3 to 10 days by MTS assay; format: toxicity, cell-based; settings: time 3-10 day
Zika virus = test: Antiviral activity against Zika virus infected in African green monkey Vero cells assessed as reduction in virus-induced cytopathic effect incubated for 3 to 10 days by MTS assay; format: functional, organism-based
Z-138 = test: Anticancer activity against human Z138 cells assessed as cell growth inhibition incubated for 72 hrs by CellTiter96 aqueous Non-Radioactive Cell Proliferation Assay; format: functional
[9] = Anticancer activity against human DND41 cells assessed as cell growth inhibition incubated for 72 hrs by CellTiter96 aqueous Non-Radioactive Cell Proliferation Assay; format: functional
HCT-116 = test: Anticancer activity against human HCT-116 cells assessed as cell growth inhibition incubated for 72 hrs by MTT assay; format: functional
A549 [10] = test: Cytotoxicity against human A549 cells incubated for 24 hrs by MTT assay; format: functional, cell-based; settings: A549, 24 h
MCF7 [11] = test: Cytotoxicity against human MCF7 cells; format: functional, cell-based
DU-145 = test: Cytotoxicity against human DU-145 cells; format: functional, cell-based
Mus musculus [12] = test: Anti-inflammatory activity against carrageenan-induced paw edema mouse model assessed as reduction in edema measured after 2 hrs relative to control; format: functional; set-up: scale not given: the % may be the effect or the level left
Mus musculus [13] = test: Anti-inflammatory activity against carrageenan-induced paw edema mouse model assessed as reduction in edema measured after 3 hrs relative to control; format: functional; set-up: scale not given: the % may be the effect or the level left
Mus musculus [14] = test: Anti-inflammatory activity against carrageenan-induced paw edema mouse model assessed as reduction in edema measured after 1 hrs relative to control; format: functional; set-up: scale not given: the % may be the effect or the level left
Acetylcholinesterase = Acetylcholinesterase (Electrophorus electricus, UniProt O42275); test: Inhibition of electric eel AChE using […] as substrate measured within 2 mins
Sequence of Acetylcholinesterase (O42275 whole entry): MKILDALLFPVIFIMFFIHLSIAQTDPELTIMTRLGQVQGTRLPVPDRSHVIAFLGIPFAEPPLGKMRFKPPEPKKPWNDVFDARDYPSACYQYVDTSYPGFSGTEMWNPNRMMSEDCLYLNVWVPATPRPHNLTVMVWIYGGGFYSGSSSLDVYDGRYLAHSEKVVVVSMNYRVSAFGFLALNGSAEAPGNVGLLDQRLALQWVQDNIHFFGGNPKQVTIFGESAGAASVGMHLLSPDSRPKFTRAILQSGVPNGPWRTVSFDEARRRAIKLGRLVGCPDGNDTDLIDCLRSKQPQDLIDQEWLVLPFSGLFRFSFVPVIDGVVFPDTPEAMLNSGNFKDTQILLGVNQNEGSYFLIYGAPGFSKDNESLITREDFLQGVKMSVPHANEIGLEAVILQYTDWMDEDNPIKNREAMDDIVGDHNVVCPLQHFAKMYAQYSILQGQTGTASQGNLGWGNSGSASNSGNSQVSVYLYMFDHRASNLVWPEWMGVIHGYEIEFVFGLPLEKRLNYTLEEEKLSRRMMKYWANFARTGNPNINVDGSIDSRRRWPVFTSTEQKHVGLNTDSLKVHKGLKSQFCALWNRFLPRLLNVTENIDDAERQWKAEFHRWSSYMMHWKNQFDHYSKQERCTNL

Cholinesterase = Cholinesterase (Equus caballus, UniProt P81908); test: Inhibition of equine serum BChE using […] as substrate measured within 2 mins
Sequence of Cholinesterase (P81908 whole entry): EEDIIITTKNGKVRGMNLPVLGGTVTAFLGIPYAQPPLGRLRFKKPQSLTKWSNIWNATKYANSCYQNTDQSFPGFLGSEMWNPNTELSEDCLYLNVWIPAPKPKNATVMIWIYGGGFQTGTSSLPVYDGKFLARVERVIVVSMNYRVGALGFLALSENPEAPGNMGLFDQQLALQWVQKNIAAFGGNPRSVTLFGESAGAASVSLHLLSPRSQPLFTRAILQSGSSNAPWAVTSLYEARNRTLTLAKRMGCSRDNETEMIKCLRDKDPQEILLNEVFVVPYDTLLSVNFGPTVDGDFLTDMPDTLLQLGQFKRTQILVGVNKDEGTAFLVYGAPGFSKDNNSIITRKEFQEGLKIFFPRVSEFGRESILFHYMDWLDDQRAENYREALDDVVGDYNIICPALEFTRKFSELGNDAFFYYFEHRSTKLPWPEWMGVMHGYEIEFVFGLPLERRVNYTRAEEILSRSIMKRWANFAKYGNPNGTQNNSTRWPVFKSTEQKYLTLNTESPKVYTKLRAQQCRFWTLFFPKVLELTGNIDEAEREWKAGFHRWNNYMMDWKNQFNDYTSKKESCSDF

Beta-secretase 1 = Beta-secretase 1 (Homo sapiens, UniProt P56817); test: Inhibition of BACE1 (unknown origin) by FRET assay
Sequence of Beta-secretase 1 (P56817 whole entry): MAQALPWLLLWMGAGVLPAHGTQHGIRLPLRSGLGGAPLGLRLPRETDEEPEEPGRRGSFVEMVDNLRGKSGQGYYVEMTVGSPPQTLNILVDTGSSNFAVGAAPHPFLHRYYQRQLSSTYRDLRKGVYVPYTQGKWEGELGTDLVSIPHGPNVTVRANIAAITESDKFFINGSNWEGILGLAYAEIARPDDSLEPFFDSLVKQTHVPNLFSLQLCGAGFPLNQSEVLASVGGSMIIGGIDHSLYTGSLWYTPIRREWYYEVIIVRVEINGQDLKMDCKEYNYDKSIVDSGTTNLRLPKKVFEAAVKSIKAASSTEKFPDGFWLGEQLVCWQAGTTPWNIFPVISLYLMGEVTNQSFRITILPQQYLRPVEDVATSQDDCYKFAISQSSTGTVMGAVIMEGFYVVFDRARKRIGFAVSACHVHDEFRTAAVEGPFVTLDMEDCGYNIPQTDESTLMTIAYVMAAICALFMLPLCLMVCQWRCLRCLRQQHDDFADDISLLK

Candida albicans = test: Antifungal activity against Candida albicans incubated for 48 to 72 hrs by broth microdilution method; format: functional; settings: time 48-72 hrs
Aspergillus fumigatus = test: Antifungal activity against Aspergillus fumigatus incubated for 48 to 72 hrs by broth microdilution method; format: functional; settings: time 48-72 hrs
Aspergillus niger = test: Antifungal activity against Aspergillus niger incubated for 48 to 72 hrs by broth microdilution method; format: functional; settings: time 48-72 hrs
SGC-7901 = test: Antiproliferative activity against human SGC-7901 cells incubated for 24 hrs by MTT assay; format: functional, cell-based; settings: SGC-7901, 24 h
Staphylococcus aureus [15] = test: Antibacterial activity against Staphylococcus aureus ATCC 8739 incubated for 24 hrs by broth microdilution method; format: functional
Escherichia coli [16] = test: Antibacterial activity against Escherichia coli ATCC 29213 incubated for 24 hrs by broth microdilution method; format: functional
[17] = Cytotoxicity against human L02 cells incubated for 24 hrs by MTT assay; format: toxicity, cell-based
HeLa = test: Antiproliferative activity against human HeLa cells incubated for 24 hrs by MTT assay; format: functional, cell-based
Bacillus subtilis = test: Antibacterial activity against Bacillus subtilis NCIM-2063 incubated for 16 to 24 hrs by broth microdilution method; format: functional; settings: time 16-24 hrs
Proteus vulgaris = test: Antibacterial activity against Proteus vulgaris […] NCIM-2027 incubated for 16 to 24 hrs by broth microdilution method; format: functional; settings: time 16-24 hrs
Escherichia coli [18] = test: Antibacterial activity against Escherichia coli NCIM-2065 incubated for 16 to 24 hrs by broth microdilution method; format: functional; settings: time 16-24 hrs
Pseudomonas aeruginosa = test: Antibacterial activity against Pseudomonas aeruginosa NCIM-2036 incubated for 16 to 24 hrs by broth microdilution method; format: functional; settings: time 16-24 hrs
Bacillus cereus = test: Antibacterial activity against Bacillus cereus NCIM-2156 incubated for 16 to 24 hrs by broth microdilution method; format: functional; settings: time 16-24 hrs
Staphylococcus aureus [19] = test: Antibacterial activity against Staphylococcus aureus NCIM-2079 incubated for 16 to 24 hrs by broth microdilution method; format: functional; settings: time 16-24 hrs
SARS-CoV = test: Antiviral activity against SARS-CoV 2019-nCoV infected in african green monkey Vero E6 cells; format: functional; settings: Severe acute respiratory syndrome-related coronavirus, Vero C1008
[20] = Inhibition of ConA-induced IL-6 secretion in female BALB/c mouse splenocyte incubated for 48 hrs by ELISA; format: functional, cell-based
[21] = Inhibition of ConA-induced TNF-alpha secretion in female BALB/c mouse splenocyte incubated for 48 hrs by ELISA; format: functional, cell-based
[22] = Inhibition of ConA-induced IL-1beta secretion in female BALB/c mouse splenocyte incubated for 48 hrs by ELISA; format: functional, cell-based
NCI-H460 [23] = test: Antiproliferative activity against human NCI-H460 cells incubated for 48 hrs by MTT assay; format: functional, cell-based; settings: NCI-H460, 48 h
HepG2 = test: Anticancer activity against human HepG2 cells incubated for 48 hrs by MTT assay; format: functional, cell-based; settings: HepG2, 48 h
L02 = test: Antiproliferative activity against human HL7702 cells incubated for 48 hrs by MTT assay; format: functional, cell-based; settings: L02, 48 h
T-24 = test: Antiproliferative activity against human T24 cells incubated for 48 hrs by MTT assay; format: functional, cell-based; settings: T-24, 48 h
MGC-803 [24] = test: Antiproliferative activity against human MGC-803 cells incubated for 48 hrs by MTT assay; format: functional, cell-based; settings: MGC-803, 48 h
MGC-803 [25] = test: Antitumor activity against human MGC-803 cells xenografted in male BALB/c nude mouse assessed as suppression of tumor growth at 12 mg/kg, ip administered per 2 days relative to control; format: functional

O=c1cc(CCl)n(CCCNc2ccnc3cc(Cl)ccc23)cc1OCc1ccccc1
IC50 (MCF7 [1]): 1.26 µM
IC50 (A549 [2]): 0.81 µM
IC50 [3]: 2.87 µM
IC50 (HT-29): 1.41 µM

C[C@H]1[C@H](C)CC[C@]2(C(=O)OCCOCCNc3ccnc4cc(Cl)ccc34)CC[C@]3(C)C(=CC[C@@H]4[C@@]5(C)CC[C@H](O)C(C)(C)[C@@H]5CC[C@]43C)[C@H]12
IC50 (MDA-MB-231): 85.6 µg/mL (≈ 121 µM)

CC(CCNCCC12CC3CC(CC(C3)C1)C2)Nc1ccnc2cc(Cl)ccc12 (stereo not drawn)
Ratio IC50 [4]: 10

C/C(=C\C(=O)NCCCCNc1cc(C(F)(F)F)nc2c(C(F)(F)F)cccc12)C(=O)NCCCCNc1cc(C(F)(F)F)nc2c(C(F)(F)F)cccc12
EC50 (Coxsackievirus): 0.85 µM
GI50 (HL-60): 2.6 µM
GI50 (NCI-H460 [5]): 3 µM
GI50 (CAPAN-1): 2.3 µM
GI50 (K562): 8.6 µM
GI50 (LN-229): 2.4 µM
CC50 [6]: 10 µM
GI50 (MCF7 [7]): 0.7 µM
CC50 [8]: 6.7 µM
EC50 (Zika virus): 0.85 µM
GI50 (Z-138): 6.9 µM
GI50 [9]: 7.9 µM
GI50 (HCT-116): 2.4 µM

Cc1cccc2c(Nc3cccc4ncccc34)cc(Cl)nc12
IC50 (A549 [10]): 29.4 µM

CC1(C)CC[C@]2(C(=O)O)CC[C@]3(C)C(=CC[C@@H]4[C@@]5(C)CC[C@H](O)C(C)(C)[C@@H]5CC[C@]43C)[C@@H]2C1 [OLEANOLIC_ACID]
IC50 (MCF7 [11]): > 200 µM
IC50 (DU-145): > 200 µM

O=C(CN1CCN(c2ccccc2)CC1)N1CCN(c2ccnc3cc(Cl)ccc23)CC1
Activity (Mus musculus [12]): 50%
Activity (Mus musculus [13]): 64%
Activity (Mus musculus [14]): 34%

Nc1c2c(nc3c1C(c1cccc([N+](=O)[O-])c1)C1=C(O3)C(=O)c3ccccc3C1=O)CCCC2 (stereo not drawn)
IC50 (Acetylcholinesterase): 0.86 µM
IC50 (Cholinesterase): 6.03 µM
IC50 (Beta-secretase 1): 19.6 µM

NCCCNc1nc(NCCCN)nc(NC(=S)NNc2ccnc3cc(Cl)ccc23)n1
MIC (Candida albicans): 8 µg/mL (≈ 16.8 µM)
MIC (Aspergillus fumigatus): 8 µg/mL (≈ 16.8 µM)
MIC (Aspergillus niger): 8 µg/mL (≈ 16.8 µM)

CCC[n+]1cc(C(=O)OCC)c(Nc2ccc(OCc3ccccc3)cc2)c2cc3c(cc21)OCO3
IC50 (SGC-7901): 17.6 µM
MIC (Staphylococcus aureus [15]): 3.12 µM
MIC (Escherichia coli [16]): 3.12 µM
IC50 (A549 [2]): 5.18 µM
IC50 at 24 h [17]: 54.5 µM
IC50 (HeLa): 7.62 µM

O=[N+]([O-])c1ccc(Nc2nc(NC(=S)NNc3ccnc4cc(Cl)ccc34)nc(Nc3ccc([N+](=O)[O-])cc3)n2)cc1
MIC (Bacillus subtilis): 25 µM (≈ 15.1 µg/mL)
MIC (Proteus vulgaris): 3.12 µM (≈ 1.88 µg/mL)
MIC (Escherichia coli [18]): 12.5 µM (≈ 7.55 µg/mL)
MIC (Pseudomonas aeruginosa): 3.12 µM (≈ 1.88 µg/mL)
MIC (Bacillus cereus): 12.5 µM (≈ 7.55 µg/mL)
MIC (Staphylococcus aureus [19]): 3.12 µM (≈ 1.88 µg/mL)

CCN(CC)CCCC(C)Nc1ccnc2cc(Cl)ccc12 (stereo not drawn) [CHLOROQUINE]
EC90 (SARS-CoV): 6.9 µM
IC50 [20]: 14.6 µM
IC50 [21]: 35 µM
IC50 [22]: 2.72 µM

CN(C)CCCNc1c(-c2nc3ccccc3s2)cnc2ccccc12
IC50 (NCI-H460 [23]): 3.22 µM
IC50 (HepG2): 4.88 µM
IC50 (L02): 10.9 µM
IC50 (T-24): 3.17 µM
IC50 (MGC-803 [24]): 2.2 µM
Activity (MGC-803 [25]): 42.4%
